According to patent US20070232527A1, “Medicaments and methods combining a HCV protease inhibitor and an AKR competitor” (priority 2005, published 2007):
≈ marks a conversion by molar mass, not a printed value. Where two headings read alike, the source gives them in different places. Each block holds one molecule with its values, some of them ahead of it.

How the values were obtained:
[1] = test system: cytosolic enzymes that form the metabolite of Formula Ia; assay: in vitro; details: monkey
[2] = in vivo; cited from earlier work
[3] = test system: cytosolic enzymes that convert Formula Ia to Formula Ia′; assay: in vitro; details: human
Experimental: (§3) All incubations contained 3 mM magnesium chloride and NADPH-generating system in 0.5 mL of 50 mM potassium phosphate buffer, pH 7.4. Prior to the addition of drug, incubation mixtures were preincubated for 2 min at 37° C. […] The incubation mixtures were vortexed and centrifuged (˜10,000 g) at 4° C. for 10 min; supernatants were analyzed by HPLC coupled with radiometric detector. Heat activated S9 cofactor or mitochondria were used as control. For LC-MS analysis, supernatants were concentrated in SpeedVac for 3 hrs. Incubation volumes were 0.5 mL and the final concentration of the organic solvents in the incubation system was less than 1% (v/v).
(§4) The mobile phase consisted of 10 mM ammonium acetate adjusted to pH 7.0 with 1% ammonium hydroxide (A) and 100% methanol (B).

[4] = target: human liver cytosol; assay: Inhibition of metabolism of 14C-Formula Ia to Formula Ia′ in human liver cytosol
Experimental: as §3, §4

[5] = In vivo inhibition study of Formula Ia with AKR competitor diflunisal, plasma PK; details: cynomolgus monkeys plasma; as a function of diflunisal dose 0, 62.5, 125, 250 mg
Experimental: An in vivo study was conducted in cynomolgus monkeys where 200 mg Formula Ia and 0 (control), 62.5, 125, or 250 mg diflunisal (Dolobid) was administered as illustrated below. All six monkeys were first dosed with Formula Ia with blood samples collected over a 12 hr period for plasma pharmacokinetics (PK) of Formula Ia prior to administration of diflunisal (dose-escalation). Four doses of diflunisal were subsequently administered every 12 hr with Formula Ia administered at each 4th diflunisal dose after which blood samples were collected for PK assessment of Formula Ia. The following chart summarizes the timing of Formula Ia and diflunisal administration.

[6] = Clinical study of the effect of ibuprofen on pharmacokinetics of Formula Ia; type: in vivo; details: human, single 400 mg dose PO fasted, alone or with ibuprofen 600 mg TID; for AUC: plasma, po, 400 mg
Experimental: The study was conducted in an open-label, randomized, 3-period, 2-sequence crossover manner (FIG. 6). During Period 1, all 12 subjects were administered a single 400 mg dose of Formula Ia. During Periods 2 and 3, subjects received multiple doses of ibuprofen (600 mg TID) in a randomized sequence. The ibuprofen was administered beginning on Day 1 (3 days prior to Formula Ia administration) and continued through Day 6. A single dose of Formula Ia was administered on Day 4 (2 hours after administration of the AM dose of ibuprofen). Plasma samples for pharmacokinetic and metabolite analyses of Formula Ia was collected at predose (0 hour), 0.5, 1, 1.5, 2, 2.5, 3, 4, 5, 6, 7, 8, 9, 10, 12, 24, 36, 48, and 72 hour postdose for each period. (The 48 and 72 hour postdose samples for Period 1 was collected in an outpatient setting). In Periods 2 and 3, additional blood samples were collected immediately prior to dosing of the Formula Ia on Day 4 and two hours post ibuprofen administration on Day 5 for determination of ibuprofen concentration.
Treatment A: Formula Ia (4×100 mg capsules); single dose, PO following an overnight fast, administered on Day 1 or Period 1.
Treatment C: Ibuprofen 600 mg; PO, TID from Day 1 to Day 6 Formula Ia (4×100 mg capsules); single dose, PO following an overnight fast, administered on Day 4 (2 hours after the AM ibuprofen dose).
Subjects received a single dose of Formula Ia on Day 1 of Period 1. In Period 2 and Period 3, subjects were treated for 6 days with ibuprofen and received a single dose of Formula Ia on Day 4 of each period. There were at least 7 days between administration of Formula Ia in Period 1 and Period 2 and at least 14 days between administration of Formula Ia in Period 2 and 3.
The proportion of subjects with plasma concentrations above the in vitro IC50 and IC90 for the HCV replicon at each time point was determined. This plasma concentration data was used to estimate the following primary pharmacokinetic variables for the determination of bioavailability comparisons: • AUC—Area under the plasma concentration-time. • Cmax—Maximum observed plasma concentration. • Tmax—Time to maximum observed plasma concentration. • t1/2—Terminal phase half-life.

[7] = target: T1, AKR1C3 (Homo sapiens, UniProt P42330); assay: Incubation with S9 fraction of recombinant human AKR1C3; type: in vitro ADME; set-up: made in house; details: 20 μM 14C-radiolabeled compound; S9 2.5 mg protein/mL; NADPH
T1 sequence (P42330 1-323): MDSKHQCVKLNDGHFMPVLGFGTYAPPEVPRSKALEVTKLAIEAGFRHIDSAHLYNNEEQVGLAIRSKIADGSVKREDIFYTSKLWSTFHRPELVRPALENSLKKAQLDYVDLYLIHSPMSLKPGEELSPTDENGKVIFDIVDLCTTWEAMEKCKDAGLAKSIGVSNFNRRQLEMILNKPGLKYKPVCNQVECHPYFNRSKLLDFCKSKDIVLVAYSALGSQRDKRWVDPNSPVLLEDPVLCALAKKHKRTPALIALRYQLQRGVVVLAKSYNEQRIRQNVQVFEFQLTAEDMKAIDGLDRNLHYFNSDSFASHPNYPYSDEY
Experimental: (§1) Recombinant human AKRs (AKR1C2, AKR1C3 and AKR1C4) were grown, sonicated and centrifuged at ˜10,000 g to obtain S9 fractions. Incubations of ^14C-radiolabeled compound of Formula Ia, ^14C-radiolabeled compound of Formula Ib and ^14C-radiolabeled compound of Formula Ic (all at 20 μM) with S9-fractions from three recombinant human AKRs (2.5 mg protein/mL) were conducted as described above. [drawing 161]
(§2) The samples were analyzed by HPLC-coupled with radiometric detector and confirmed by LC-MS.

[8] = target: T2, AKR1C2 (Homo sapiens, UniProt P52895); assay: Incubation with S9 fraction of recombinant human AKR1C2; type: in vitro ADME; set-up: made in house; details: 20 μM 14C-radiolabeled compound; S9 2.5 mg protein/mL; NADPH
T2 sequence (P52895 1-323): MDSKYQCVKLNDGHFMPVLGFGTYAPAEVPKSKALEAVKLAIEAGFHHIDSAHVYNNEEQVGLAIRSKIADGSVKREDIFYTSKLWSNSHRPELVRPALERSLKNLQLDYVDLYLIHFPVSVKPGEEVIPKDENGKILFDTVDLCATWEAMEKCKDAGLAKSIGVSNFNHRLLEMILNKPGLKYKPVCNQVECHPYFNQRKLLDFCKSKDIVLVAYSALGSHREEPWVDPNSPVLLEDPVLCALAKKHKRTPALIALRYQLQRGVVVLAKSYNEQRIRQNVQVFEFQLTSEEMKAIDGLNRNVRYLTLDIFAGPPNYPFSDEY
Experimental: as §1, §2

[9] = test system: human liver cytosol; assay: Incubation of Formula Ia or Formula XXVII in human liver cytosol with AKR competitor (LC-MS, M+2 metabolite); type: in vitro ADME
Experimental: Prior to the addition of drug, the incubation mixture was preincubated for 2 min at 37° C. […] Human liver microsomes and cytosol without NADPH served as negative controls. Parallel incubations with the compound of Formula Ia were used as positive controls. […] All incubations were performed as described previously for human liver cytosols. […] Parallel incubations with the compound of Formula Ia were used as positive controls.

[10] = target: T2, AKR1C2; details: tibolone as a substrate; cited from earlier work
[11] = target: T1, AKR1C3; details: tibolone as a substrate; cited from earlier work
[12] = test system: Human liver S9; assay: Inhibition of metabolism of 14C-Formula Ia to Formula Ia′ in human liver S9; type: in vitro ADME; details: S9; concentration not given

Compound: O=C(O)c1cc(-c2ccc(F)cc2F)ccc1O [Diflunisal]
IC50 [1]: 11 µM | Vdss [2]: 0.1 L/kg | protein binding [2]: about 99% | IC50 at 120 min ([3]; pH 7.4): 1 µg/mL (≈ 4 µM) | inhibition at 2 h, 200 µM ([3]; pH 7.4, % of Inhibition on Metabolite Formation of Compound Formula Ia): 89.4% | Ki ([4]; human cytosol, assuming the liver to plasma ratio equals 1): 0.5 µg/mL

AUC ratio (Formula Ia′ to AUC for the compound) [5]: decline | AUC ([6]; read-out: AUC(all), Mean (% CV)): 2040 ng·h/mL | AUC ([6]; read-out: AUC(l), Mean (% CV)): 2070 ng·h/mL | AUC(0-t) ([6]; plasma Formula Ia, read-out: AUC(last), Mean (% CV)): 2000 ng·h/mL | Cmax ([6]; plasma Formula Ia, read-out: Cmax, Mean (% CV)): 571 ng/mL | MRT ([6]; plasma Formula Ia, read-out: MRT(l), Mean (% CV)): 6.57 h | Tmax ([6]; plasma Formula Ia, read-out: Tmax (median)): 1.75 h | half-life ([6]; plasma Formula Ia, read-out: t1/2, Mean (% CV) (converted)): 9.11 h | metabolism by recombinant AKR1C3 [7]: yielded compound of Formula Ia′ | metabolism by recombinant AKR1C2 [8]: yielded compound of Formula Ia′ | 1ST PARENT PEAK AREA ([9]; HL Cytosol w/ NADPH + 50 uM Mefenamic acid): 6.19E+07 | 1ST PARENT PEAK AREA ([9]; HL Cytosol w/ NADPH + 100 uM Flufenamic acid): 6.33E+07 | 1ST PARENT PEAK AREA ([9]; HL Cytosol w/ NADPH + 100 uM Phenolphthalein): 6.23E+07 | 1ST PARENT PEAK AREA ([9]; HL Cytosol w/ NADPH + 200 uM Diflunisal): 6.10E+07 | 1ST PARENT PEAK AREA ([9]; HL Cytosol w/ NADPH Vehicle Control (no inhibitor)): 3.95E+07 | 1ST PARENT PEAK AREA ([9]; HL Cytosol w/o NADPH, 20 μM, 60 min): 7.41E+07
Compound: CC(C)(C)NC(=O)N[C@H](C(=O)N1C[C@H]2[C@@H]([C@H]1C(=O)NC(CC1CCC1)C(=O)C(N)=O)C2(C)C)C(C)(C)C (stereo partly drawn) [Formula Ia, (1R,5S)—N-[3-Amino-1-(Cyclobutylmethyl)-2,3-Dioxopropyl]-3-[2(S)-[[[(1,1-Dimethylethyl)Amino]Carbonyl]Amino]-3,3-Dimethyl-1-Oxobutyl]-6,6-Dimethyl-3-Azabicyclo[3.1.0]Hexan-2(S)-Carboxamide]

Compound: CC(CCC(=O)O)C1CCC2C3C(O)CC4CC(O)CCC4(C)C3CCC12C (stereo not drawn) [5beta-cholanic acid 3alpha, 7-alpha-diol]
IC50 [10]: 0.21 µM | IC50 [11]: 74.4 µM

Compound: O=[N+]([O-])c1ccc(OP(=O)(O)Oc2ccc([N+](=O)[O-])cc2)cc1 [BNPP, bis(4-nitrophenyl)-phosphate]
inhibited formation of the compound of Formula Ia′ [12]: 57.4% | % Inhibition on Metabolite Formation of Compound Formula Ia ([4]; Table 4, human liver cytosol, inhibitor 1000 μM, 2 hr incubation): 63.4% | inhibited formation of the compound of Formula Ia′ ([4]; cytosol, concentration not given): 63.4%
